Patent US20210354135A1, “SYSTEMS AND METHODS FOR EVALUATING AN ABILITY OF A BLOOD SAMPLE TO COAGULATE, CLOT, AND/OR OCCLUDE” (The Texas A&M University System, priority 2020, published 2021)

How the values were obtained:
[1] = system: recalcified citrated whole blood; experiment: Pressure-sensor readout of clot formation and clotting time in tortuous microfluidic device perfused with recalcified citrated whole blood; format: cell-based, human; details: for clotting time (2.5× pressure increase from baseline): increasing concentration of heparin (0-1 IU/ml) or bivalirudin (0-75 ng/mL), FIGS. 20, 22
Description: Even though microscopic analysis of real-time thrombus formation in the microfluidic device may be useful in labs, the microfluidic device may also be deployed and utilized at the point-of-care. In the interest of utilizing the microfluidic device at the point-of-care, the microfluidic device was connected to a syringe pump, a disposable pressure sensor, and a display monitor. Given that each of these components are already a part of most extracorporeal circuits, these components may be conveniently integrated in broad critical care settings. Additionally, using these components, clot formation may be automatically tracked in real-time by measuring changes in fluid pressure caused by increasing channel occlusion inside the device, as described above with respect to system 10.
It was found during testing of the microfluidic device that as recalcified citrated whole blood was perfused and formed clots inside the microfluidic device, pressure increases typical of the dynamics of clotting in blood vessel in vivo, or in an in vitro hollow channel, was seen, the pressure increases comprising three stages—a steady reaction time, a growth phase, and saturation. […] Next, a clotting time measurement was developed for these pressure readouts to serve as a quantitative end point in lab and clinical settings.
The experimental microfluidic described above was fabricated from PDMS soft lithography to a size that would fit on a standard (e.g., 75 mm×50 mm) microscope slide. The cured PDMS from the master mold was bonded to a […] PDMS-coated glass slide and punched with inlet and outlet 1.5 mm holes. Next, the device was coated with rat tail type I collagen at 100 μg/ml infused into the microfluidic device which was pre-treated with silane. The microfluidic device was incubated at 37° C. for three to four hours and washed with saline solution prior to blood perfusion. At the inlet side of the microfluidic device, a reservoir was created by force-fitting an open slip-tip syringe and fresh blood was stored therein. At the outlet, tubing was connected to an inline, disposable pressure sensor configured to determine pressure change across the microfluidic device. The other end of the pressure sensor was connected to a syringe pump which pulled the stored blood at a mean arteriole wall shear rate of 1200 1/s. Thrombus formation was observed using time-lapse imaging (10×, NA 0.35) of fluorescently labelled fibrinogen (15 μg/ml, Alexa Fluor 647, Invitrogen) and platelets (10 μl/ml Human CD41-PE (clone: VIPL3), Invitrogen) added directly to the blood and incubated at room temperature for approximately eight minutes for whole blood imaging. Fluorescence microscopy of fibrin and platelets was then performed at an interval of approximately 30 seconds.

whole blood = experiment: Fibrin area coverage by fluorescence microscopy in collagen-coated tortuous microfluidic device perfused with whole blood; format: cell-based, human
Description: A microfluidic device was then fabricated and mounted onto a microscope for visualization. The microfluidic device was also connected the to a syringe pump to introduce flow therethrough in a configuration similar, in at least some respects, to that of system 10 shown in FIG. 1. Blood first entered into a large reservoir (4.7 mm wide) and then flow split into four smaller parallel stenosed tortuous channels (200 μm wide); followed by convergence of the flow into an outlet similar to the inlet. The 4-channel design is partially analogous to a vessel network in vivo in which clots may form or detach locally, but the pressure still increases due to the systemic thrombosis. In addition, the total width and length of the device were designed to fit on a standard glass microscope slide for practical ease. Each device contains multiple single microchannel sections that were optimized to create maximum tortuosity (alternating 30° bends, corresponding to TI=3.4), to expose flowing whole blood to varying shear rates due to both stenosis and tortuosity, thus promoting rapid clot formation and occlusion. To enable more rapid cell activation and adhesion, the surface of the microchannels were further functionalized within the device with collagen type I, which is a commonly applied platelet agonist. The microfluidic device was operated at a flowrate of 70 μl/min, leading to a pre-stenosed mean wall shear rate of 1,200 reciprocal seconds (1/s) corresponding to typical arteriolar flow, and a wall shear gradient of 935 reciprocal second-millimeters (1/(s-m)) in the straight region following the pre-stenosed reservoir.
Referring to FIGS. 13, 14, re-calcified citrated whole blood was perfused through the microfluidic device for a maximum of 10 minutes at the 70 μl/min, less than 1 mL of blood was consumed, and the formation of various sized thrombi was detected throughout its entire length using fluorescence imaging 205, 207 shown in FIGS. 13, 14, respectively. […]

NC[C@H]1CC[C@H](C(=O)O)CC1 [tranexamic acid]
blood flow pressure curve over time ([1]; increasing doses of tranexamic acid 0-4 mg/mi in whole blood, FIG. 25): relative shift in pressure curve to the left | clotting time ([1]; increasing doses of tranexamic acid 0-4 mg/mi in whole blood, FIG. 26): decrease in clotting time

bivalirudin
blood flow pressure increase over time ([1]; bivalirudin 0-75 ng/mL added into blood, FIG. 21): a similar trend | clotting time (2.5× pressure increase from baseline) [1]: clotting time decreased as concentration increased | fibrin area coverage (whole blood; bivalirudin 0-100 ng mL−1 added to whole blood, FIGS. 17, 18): reduced fibrin | fibrin area coverage (whole blood; bivalirudin at 75 ng/ml in whole blood, FIGS. 17, 18): nearly complete clearance

unfractionated heparin
blood flow pressure increase over time ([1]; heparin 0-1 IU/ml added into blood, relative to normal controls, FIG. 19): the pressure increase shifted relative to normal controls | clotting time (2.5× pressure increase from baseline) [1]: clotting time decreased as concentration increased | fibrin area coverage (whole blood; UFH 0-1 IU/mL added to whole blood, fluorescently labelled fibrin, FIGS. 15, 16): decrease in fibrin area coverage
